Tests used:
OVCAR-4 = assay: In vitro cytostatic effect (SRB): OVCAR-4, Ovarian cancer; conditions: for GI50 / TGI: 48-hour incubation; for CC50: read-out: LC50, 48-hour incubation
CCRF-CEM = assay: In vitro cytostatic effect (SRB): CCRF-CEM, Leukemia; conditions: for CC50: read-out: LC50, 48-hour incubation
MOLT-4 = assay: In vitro cytostatic effect (SRB): MOLT-4, Leukemia; conditions: for GI50 / TGI: 48-hour incubation; for CC50: read-out: LC50, 48-hour incubation
CAKI-1 = assay: In vitro cytostatic effect (SRB): CAKI-1, Kidney cancer; conditions: for GI50 / TGI: 48-hour incubation; for CC50: read-out: LC50, 48-hour incubation
HOP-62 = assay: In vitro cytostatic effect (SRB): HOP-62, Lung cancer; conditions: for GI50 / TGI: 48-hour incubation; for CC50: read-out: LC50, 48-hour incubation
NCI-H23 = assay: In vitro cytostatic effect (SRB): NCI-H23, Lung cancer; conditions: for GI50 / TGI: 48-hour incubation; for CC50: read-out: LC50, 48-hour incubation
SR = assay: In vitro cytostatic effect (SRB): SR, Leukemia; conditions: for CC50: read-out: LC50, 48-hour incubation
HCT-15 = assay: In vitro cytostatic effect (SRB): HCT-15, Intestinal cancer; conditions: for GI50 / TGI: 48-hour incubation
MDA-MB-435 = assay: In vitro cytostatic effect (SRB): MDA-MB-435, Breast cancer; conditions: for GI50 / TGI: 48-hour incubation; for CC50: read-out: LC50, 48-hour incubation
MALME-3M = assay: In vitro cytostatic effect (SRB): MALME-3M, Melanoma; conditions: for GI50 / TGI: 48-hour incubation; for CC50: read-out: LC50, 48-hour incubation
OVCAR-8 = assay: In vitro cytostatic effect (SRB): OVCAR-8, Ovarian cancer; conditions: for GI50 / TGI: 48-hour incubation; for CC50: read-out: LC50, 48-hour incubation
PC-3 = assay: In vitro cytostatic effect (SRB): PC-3, Prostate cancer; conditions: for GI50 / TGI: 48-hour incubation; for CC50: read-out: LC50, 48-hour incubation
M14 = assay: In vitro cytostatic effect (SRB): M14, Melanoma; conditions: for GI50 / TGI: 48-hour incubation; for CC50: read-out: LC50, 48-hour incubation
SF-268 = assay: In vitro cytostatic effect (SRB): SF-268, Cancer of the central nervous system; conditions: for GI50 / TGI: 48-hour incubation; for CC50: read-out: LC50, 48-hour incubation
OVCAR-3 = assay: In vitro cytostatic effect (SRB): OVCAR-3, Ovarian cancer; conditions: for GI50 / TGI: 48-hour incubation; for CC50: read-out: LC50, 48-hour incubation
K-562 = assay: In vitro cytostatic effect (SRB): K-562, Leukemia; conditions: for GI50 / TGI: 48-hour incubation; for CC50: read-out: LC50, 48-hour incubation
SK-MEL-28 = assay: In vitro cytostatic effect (SRB): SK-MEL-28, Melanoma; conditions: for GI50 / TGI: 48-hour incubation; for CC50: read-out: LC50, 48-hour incubation
OVCAR-5 = assay: In vitro cytostatic effect (SRB): OVCAR-5, Ovarian cancer; conditions: for GI50 / TGI: 48-hour incubation; for CC50: read-out: LC50, 48-hour incubation
U251 = assay: In vitro cytostatic effect (SRB): U251, Cancer of the central nervous system; conditions: for GI50 / TGI: 48-hour incubation; for CC50: read-out: LC50, 48-hour incubation
SN12C = assay: In vitro cytostatic effect (SRB): SN12C, Kidney cancer; conditions: for GI50 / TGI: 48-hour incubation; for CC50: read-out: LC50, 48-hour incubation
HT29 = assay: In vitro cytostatic effect (SRB): HT29, Intestinal cancer; conditions: for GI50 / TGI: 48-hour incubation; for CC50: read-out: LC50, 48-hour incubation
SNB-75 = assay: In vitro cytostatic effect (SRB): SNB-75, Cancer of the central nervous system; conditions: for GI50 / TGI: 48-hour incubation; for CC50: read-out: LC50, 48-hour incubation
NCI-H226 = assay: In vitro cytostatic effect (SRB): NCI-H226, Lung cancer; conditions: for GI50 / TGI: 48-hour incubation; for CC50: read-out: LC50, 48-hour incubation
COLO205 = assay: In vitro cytostatic effect (SRB): COLO205, Intestinal cancer; conditions: for GI50 / TGI: 48-hour incubation; for CC50: read-out: LC50, 48-hour incubation
TK-10 = assay: In vitro cytostatic effect (SRB): TK-10, Kidney cancer; conditions: for GI50 / TGI: 48-hour incubation; for CC50: read-out: LC50, 48-hour incubation
SNB-19 = assay: In vitro cytostatic effect (SRB): SNB-19, Cancer of the central nervous system; conditions: for GI50 / TGI: 48-hour incubation; for CC50: read-out: LC50, 48-hour incubation
NCI-H460 = assay: In vitro cytostatic effect (SRB): NCI-H460, Lung cancer; conditions: for GI50 / TGI: 48-hour incubation; for CC50: read-out: LC50, 48-hour incubation
MDA-MB-231/ATCC = assay: In vitro cytostatic effect (SRB): MDA-MB-231/ATCC, Breast cancer; conditions: for GI50 / TGI: 48-hour incubation; for CC50: read-out: LC50, 48-hour incubation

CCCCCCCCCCCCCCCCCCOC(COP(=O)(O)OCC1OC(n2cc(F)c(=O)[nH]c2=O)CC1O)COP(=O)(O)OCC1OC(n2ccc(N)nc2=O)C(O)C1O (racemic) [NSC 698688-A/1, arabinocytidylyl-(5′→1)-2-O-octadecyl-rac-glycerylyl-(3→5′)-5-fluoro-2′-deoxyuridine]
GI50 (OVCAR-4): 58.5 µM
TGI (OVCAR-4): >1.00E − 04 mol/l
CC50 (OVCAR-4): > 100 µM
GI50 (CCRF-CEM; 48-hour incubation): 1.28 µM
TGI (CCRF-CEM; 48-hour incubation): >1.00E − 04 mol/l
CC50 (CCRF-CEM): > 100 µM
GI50 (MOLT-4): 0.467 µM
TGI (MOLT-4): >1.00E − 04 mol/l
CC50 (MOLT-4): > 100 µM
GI50 (CAKI-1): 10.4 µM
TGI (CAKI-1): >1.00E − 04 mol/l
CC50 (CAKI-1): > 100 µM
GI50 (HOP-62): 0.699 µM
TGI (HOP-62): >1.00E − 04 mol/l
CC50 (HOP-62): > 100 µM
GI50 (NCI-H23): 7.23 µM
TGI (NCI-H23): >1.00E − 04 mol/l
CC50 (NCI-H23): > 100 µM
TGI (SR; 48-hour incubation): >1.00E − 04 mol/l
CC50 (SR): > 100 µM
GI50 (HCT-15): 14.4 µM
TGI (HCT-15): >1.00E − 04 mol/l
CC50 (HCT-15; read-out: LC50, 48-hour incubation): > 100 µM
GI50 (MDA-MB-435): 33.8 µM
TGI (MDA-MB-435): >1.00E − 04 mol/l
CC50 (MDA-MB-435): > 100 µM
GI50 (MALME-3M): > 100 µM
TGI (MALME-3M): >1.00E − 04 mol/l
CC50 (MALME-3M): > 100 µM
GI50 (OVCAR-8): 0.968 µM
TGI (OVCAR-8): >1.00E − 04 mol/l
CC50 (OVCAR-8): > 100 µM
GI50 (PC-3): 11.5 µM
TGI (PC-3): 8.64E − 05 mol/l
CC50 (PC-3): > 100 µM
GI50 (M14): 3.53 µM
TGI (M14): 8.62E − 05 mol/l
CC50 (M14): > 100 µM
GI50 (SF-268): 0.745 µM
TGI (SF-268): >1.00E − 04 mol/l
CC50 (SF-268): > 100 µM
GI50 (OVCAR-3): > 100 µM
TGI (OVCAR-3): >1.00E − 04 mol/l
CC50 (OVCAR-3): > 100 µM
GI50 (K-562): 3.35 µM
TGI (K-562): >1.00E − 04 mol/l
CC50 (K-562): > 100 µM
GI50 (SK-MEL-28): 57.8 µM
TGI (SK-MEL-28): >1.00E − 04 mol/l
CC50 (SK-MEL-28): > 100 µM
GI50 (OVCAR-5): 89.6 µM
TGI (OVCAR-5): >1.00E − 04 mol/l
CC50 (OVCAR-5): > 100 µM
GI50 (U251): 3.14 µM
TGI (U251): 2.48E − 05 mol/l
CC50 (U251): 73.8 µM
GI50 (SN12C): 13.3 µM
TGI (SN12C): >1.00E − 04 mol/l
CC50 (SN12C): > 100 µM
GI50 (HT29): 12.5 µM
TGI (HT29): >1.00E − 04 mol/l
CC50 (HT29): > 100 µM
GI50 (SNB-75): 20.4 µM
TGI (SNB-75): >1.00E − 04 mol/l
CC50 (SNB-75): > 100 µM
GI50 (NCI-H226): 75.9 µM
TGI (NCI-H226): >1.00E − 04 mol/l
CC50 (NCI-H226): > 100 µM
GI50 (COLO205): 10.5 µM
TGI (COLO205): 3.88E − 05 mol/l
CC50 (COLO205): > 100 µM
GI50 (TK-10): 22.9 µM
TGI (TK-10): >1.00E − 04 mol/l
CC50 (TK-10): > 100 µM
GI50 (SNB-19): 0.919 µM
TGI (SNB-19): 2.37E − 05 mol/l
CC50 (SNB-19): 64.1 µM
GI50 (NCI-H460): 0.0466 µM
TGI (NCI-H460): 2.79E − 05 mol/l
CC50 (NCI-H460): > 100 µM
GI50 (MDA-MB-231/ATCC): > 100 µM
TGI (MDA-MB-231/ATCC): >1.00E − 04 mol/l
CC50 (MDA-MB-231/ATCC): > 100 µM

Nc1ccn(C2CCC(COP(=O)(O)OCC(O)COP(=O)(O)OCC3OC(n4cc(F)c(=O)[nH]c4=O)CC3O)O2)c(=O)n1 (racemic) [NSC 704533, 2′,3′-didesoxycytidylyl-(5′→1)-racglycerylyl-(3→5′)-5-fluoro-2′-desoxyuridine]
GI50 (OVCAR-4): > 100 µM
TGI (OVCAR-4): >1.00E − 04 mol/l
CC50 (OVCAR-4): > 100 µM
TGI (CCRF-CEM; 48-hour incubation): >1.00E − 04 mol/l
CC50 (CCRF-CEM): > 100 µM
GI50 (MOLT-4): 0.104 µM
TGI (MOLT-4): >1.00E − 04 mol/l
CC50 (MOLT-4): > 100 µM
GI50 (CAKI-1): 1.44 µM
TGI (CAKI-1): >1.00E − 04 mol/l
CC50 (CAKI-1): > 100 µM
GI50 (HOP-62): 0.902 µM
TGI (HOP-62): >1.00E − 04 mol/l
CC50 (HOP-62): > 100 µM
GI50 (NCI-H23): 0.0979 µM
TGI (NCI-H23): >1.00E − 04 mol/l
CC50 (NCI-H23): > 100 µM
GI50 (SR; 48-hour incubation): < 0.01 µM
TGI (SR; 48-hour incubation): >1.00E − 04 mol/l
CC50 (SR): > 100 µM
GI50 (HCT-15): 17.9 µM
TGI (HCT-15): >1.00E − 04 mol/l
GI50 (MDA-MB-435): 4.76 µM
TGI (MDA-MB-435): >1.00E − 04 mol/l
CC50 (MDA-MB-435): > 100 µM
GI50 (MALME-3M): > 100 µM
TGI (MALME-3M): >1.00E − 04 mol/l
CC50 (MALME-3M): > 100 µM
GI50 (OVCAR-8): 0.141 µM
TGI (OVCAR-8): >1.00E − 04 mol/l
CC50 (OVCAR-8): > 100 µM
GI50 (PC-3): 2.28 µM
TGI (PC-3): >1.00E − 04 mol/l
CC50 (PC-3): > 100 µM
GI50 (M14): 0.203 µM
TGI (M14): >1.00E − 04 mol/l
CC50 (M14): > 100 µM
GI50 (SF-268): < 0.01 µM
TGI (SF-268): >1.00E − 04 mol/l
CC50 (SF-268): > 100 µM
GI50 (OVCAR-3): 65.4 µM
TGI (OVCAR-3): >1.00E − 04 mol/l
CC50 (OVCAR-3): > 100 µM
GI50 (K-562): 2.57 µM
TGI (K-562): >1.00E − 04 mol/l
CC50 (K-562): > 100 µM
GI50 (SK-MEL-28): 37.9 µM
TGI (SK-MEL-28): >1.00E − 04 mol/l
CC50 (SK-MEL-28): > 100 µM
GI50 (OVCAR-5): 12.6 µM
TGI (OVCAR-5): >1.00E − 04 mol/l
CC50 (OVCAR-5): > 100 µM
GI50 (U251): 1.26 µM
TGI (U251): >1.00E − 04 mol/l
CC50 (U251): > 100 µM
GI50 (SN12C): 0.173 µM
TGI (SN12C): >1.00E − 04 mol/l
CC50 (SN12C): > 100 µM
GI50 (HT29): 1.88 µM
TGI (HT29): >1.00E − 04 mol/l
CC50 (HT29): > 100 µM
GI50 (SNB-75): 1.59 µM
TGI (SNB-75): >1.00E − 04 mol/l
CC50 (SNB-75): > 100 µM
GI50 (NCI-H226): > 100 µM
TGI (NCI-H226): >1.00E − 04 mol/l
CC50 (NCI-H226): > 100 µM
GI50 (COLO205): 17.7 µM
TGI (COLO205): >1.00E − 04 mol/l
CC50 (COLO205): > 100 µM
GI50 (TK-10): 6.25 µM
TGI (TK-10): >1.00E − 04 mol/l
CC50 (TK-10): > 100 µM
GI50 (SNB-19): 0.25 µM
TGI (SNB-19): >1.00E − 04 mol/l
CC50 (SNB-19): > 100 µM
GI50 (NCI-H460): < 0.01 µM
TGI (NCI-H460): >1.00E − 04 mol/l
CC50 (NCI-H460): > 100 µM
GI50 (MDA-MB-231/ATCC): 95.5 µM
TGI (MDA-MB-231/ATCC): >1.00E − 04 mol/l
CC50 (MDA-MB-231/ATCC): > 100 µM

— US6787525B1, “Glyceryl nucleotides, method for the production thereof and their use” (priority 1998, dated 2004)
